Results taken from PMC4048319, “Design and Synthesis of High Affinity Inhibitors of Plasmodium falciparum and Plasmodium vivax N-Myristoyltransferases Directed by Ligand Efficiency Dependent Lipophilicity (LELP)” (Journal of Medicinal Chemistry, 2014).

Legend:
[1] = system: HepG2 cells; assay: in vitro; format: cell-based
[2] = biological target: T1, PfNMT (Plasmodium falciparum, UniProt Q9U419); assay: LELP (cLogP/LE, PfNMT LE)
T1 sequence (Q9U419 1-410): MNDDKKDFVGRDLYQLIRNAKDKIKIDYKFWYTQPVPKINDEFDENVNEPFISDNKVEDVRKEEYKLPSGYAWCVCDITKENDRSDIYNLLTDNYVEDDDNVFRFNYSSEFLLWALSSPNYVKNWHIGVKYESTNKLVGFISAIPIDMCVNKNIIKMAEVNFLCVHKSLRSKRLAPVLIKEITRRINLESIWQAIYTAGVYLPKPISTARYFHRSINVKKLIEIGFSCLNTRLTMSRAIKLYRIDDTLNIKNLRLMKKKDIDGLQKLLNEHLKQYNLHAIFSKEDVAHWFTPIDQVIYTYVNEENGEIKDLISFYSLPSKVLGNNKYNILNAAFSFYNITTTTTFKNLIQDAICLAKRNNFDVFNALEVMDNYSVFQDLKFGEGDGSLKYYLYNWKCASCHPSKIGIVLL

[3] = biological target: T2, HsNMT1 (Homo sapiens, UniProt P30419); assay: NMT enzyme inhibition, CPM fluorescence assay (HsNMT1); format: biochemical; details: ratio of Ki
T2 sequence (P30419 1-496): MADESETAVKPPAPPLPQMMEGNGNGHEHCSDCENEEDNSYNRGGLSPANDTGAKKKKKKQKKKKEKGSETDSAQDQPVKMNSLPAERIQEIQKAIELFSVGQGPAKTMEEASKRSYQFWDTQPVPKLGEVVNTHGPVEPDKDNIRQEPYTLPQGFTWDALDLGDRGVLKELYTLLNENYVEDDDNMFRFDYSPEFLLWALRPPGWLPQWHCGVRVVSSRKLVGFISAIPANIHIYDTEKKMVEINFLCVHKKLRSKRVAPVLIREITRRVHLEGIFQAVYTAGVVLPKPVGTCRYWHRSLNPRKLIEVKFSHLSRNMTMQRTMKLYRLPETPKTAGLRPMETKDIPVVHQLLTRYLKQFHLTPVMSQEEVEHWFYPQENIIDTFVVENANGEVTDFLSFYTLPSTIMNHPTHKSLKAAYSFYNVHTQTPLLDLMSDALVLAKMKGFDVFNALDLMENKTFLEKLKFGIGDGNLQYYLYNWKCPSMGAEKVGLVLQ
Procedure: (§1) All IC50 determinations were carried out using a 7-diethylamino-3-(4′-maleimidylphenyl)-4-methylcoumarin (CPM) fluorescence assay, as described previously for HsNMT1,[45] PvNMT,[46] and PfNMT.[21]
(§2) IC50 values are the mean value of two or more determinations, and standard deviation is within 20% of the IC50 unless otherwise specified. Data were elaborated using Microsoft Office Excel 2010, and IC50 values were determined using GraFit 7.0 (Erithacus Software Ltd., U.K.) by nonlinear regression fitting, which were then quoted as Ki as defined below.
(§3) The Michaelis constant (Km) was 3.64 μM and the substrate concentration was 4.00 μM, resulting in a Ki of 0.008 μM. Km values were calculated as described previously.[45]

[4] = biological target: PbNMT (Plasmodium berghei, UniProt A0A509ARF4); assay: PbNMT enzyme affinity; format: biochemical
PbNMT, sequence (A0A509ARF4 entry or part of it): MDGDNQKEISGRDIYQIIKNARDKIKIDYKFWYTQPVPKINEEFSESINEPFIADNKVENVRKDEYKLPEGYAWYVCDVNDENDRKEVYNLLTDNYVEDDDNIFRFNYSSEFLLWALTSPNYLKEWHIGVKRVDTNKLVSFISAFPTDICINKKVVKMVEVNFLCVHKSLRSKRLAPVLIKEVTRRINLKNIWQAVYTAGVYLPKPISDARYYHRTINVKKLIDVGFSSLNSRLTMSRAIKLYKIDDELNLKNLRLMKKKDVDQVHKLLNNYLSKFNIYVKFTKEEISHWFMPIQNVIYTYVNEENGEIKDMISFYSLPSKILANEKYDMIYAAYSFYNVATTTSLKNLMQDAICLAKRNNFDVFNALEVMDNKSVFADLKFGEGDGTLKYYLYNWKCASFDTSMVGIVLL
Procedure: In addition, 34c was tested against a Plasmodium berghei (Pb) liver stage model to determine whether NMT is likely to be a viable drug target for clearance of liver stage parasites. […] This provides evidence that NMT inhibition is also a promising mechanism for targeting liver stage parasites and may therefore be an effective pathway for the disruption of multiple parasite life stages.

[5] = biological target: T1, PfNMT; assay: NMT enzyme inhibition, CPM fluorescence assay (PfNMT); format: biochemical; details: for Ki: Ki calculated from IC50 by Cheng-Prusoff, mean of two or more determinations, read-out: PfNMT Ki
Procedure: as §1, §2, §3

[6] = in vitro; format: cell-based; details: human
[7] = system: P. falciparum Dd2; assay: Plasmodium falciparum [3H]hypoxanthine incorporation assay (Dd2); format: cell-based; details: drug-resistant vs drug-sensitive line
Procedure: This assay was performed by Dr. Sergio Wittlin and Dr. Christian Scheurer at the Swiss Tropical and Public Health Institute and is a modified version of the original hypoxanthine assay published by Desjardins et al.:[47]
Serial drug dilutions were prepared with a multichannel pipet, transferring 100 μL in a 2-fold serial dilution. Wells of rows A served as controls without drug. An amount of 100 μL of infected blood (parasitemia of 0.3%, 2.5% hematocrit) was added to all wells with a multipipette. The control wells (A9–A12) received uninfected blood of 2.5% hematocrit. The plates were incubated in an incubation chamber at 37 °C in an atmosphere containing 93% N2, 4% CO2, 3% O2. After 48 h, an amount of 50 μL of [^3H]hypoxanthine (=0.5 μCi) solution was added to each well of the plate. The plates were incubated for another 24 h. The plates were then harvested with a Betaplate cell harvester (Wallac, Zurich, Switzerland). The dried filters were inserted into a plastic foil with 10 mL of scintillation fluid and counted in a Betaplate liquid scintillation counter (Wallac, Zurich, Switzerland). The results were recorded as counts per minute (cpm) per well at each drug concentration.
Data were analyzed using a graphic program (e.g., Excel) and expressed as percentage of the untreated controls. The 50% inhibitory concentration (IC50) value was evaluated by logit regression analysis.

[8] = cLogP determined with ChemAxon
[9] = set-up: method as in PMID 24451586; details: previously reported; cited from earlier work
[10] = system: rodent malaria model; set-up: method as in PMID 24451586; details: previously shown; cited from earlier work
[11] = Aqueous solubility; format: physicochemical; details: data not shown
[12] = biological target: T3, PvNMT (Plasmodium vivax, UniProt A5K1A2); assay: NMT enzyme inhibition, CPM fluorescence assay (PvNMT); format: biochemical; details: relative to 34c
T3 sequence (A5K1A2 1-410): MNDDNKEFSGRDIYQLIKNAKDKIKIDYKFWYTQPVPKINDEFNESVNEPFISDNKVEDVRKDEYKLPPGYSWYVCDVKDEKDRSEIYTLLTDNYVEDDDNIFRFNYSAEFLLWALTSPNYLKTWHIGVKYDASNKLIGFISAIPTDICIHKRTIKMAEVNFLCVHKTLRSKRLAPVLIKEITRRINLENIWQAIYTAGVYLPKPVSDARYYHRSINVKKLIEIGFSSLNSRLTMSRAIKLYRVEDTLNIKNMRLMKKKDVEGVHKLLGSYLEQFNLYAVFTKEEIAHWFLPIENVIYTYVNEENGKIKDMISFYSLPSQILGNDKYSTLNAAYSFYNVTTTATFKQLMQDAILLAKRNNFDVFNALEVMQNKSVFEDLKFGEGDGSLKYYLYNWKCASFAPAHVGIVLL
Procedure: as §1, §2, §3

## O=C1C(O)=C([C@H]2CC[C@H](c3ccc(Cl)cc3)CC2)C(=O)c2ccccc21 [compound 37, atovaquone, reference compound]
[1]; human, 72 h
  HepG2 LD50: >10 000 nM

## Clc1cccc(Cc2noc(-c3sc4ccccc4c3OC3CCNCC3)n2)c1 [9d]
[2]
  LELP: 15.3

## Cc1noc(C)c1Cc1nnc(-c2sc3ccccc3c2OC2CCNCC2)o1 [34b]
[3]
  selectivity between PfNMT and HsNMT: 8- to 9 fold
[2]
  LELP: 6.1

## c1ccc(Cc2noc(-c3sc4ccccc4c3OC3CCNCC3)n2)cc1 [9a, 3-Benzyl-5-(3-(piperidin-4-yloxy)benzo[b]thiophen-2-yl)-1,2,4-oxadiazole]
[2]
  LELP: 12.4

## CC(C)(c1ccccc1)c1nnc(-c2sc3ccccc3c2OC2CCNCC2)o1 [23b]
[2]
  LELP: 14.1

## O=C(OCCCc1ccccc1)c1sc2ccccc2c1OC1CCNCC1 [4d]
[2]
  LELP: 18.6

## FC(F)(c1ccccc1)c1nnc(-c2sc3ccccc3c2OC2CCNCC2)o1 [23d]
[2]
  LELP: 13.8

## Cc1nn(C)c(C)c1Cc1nnc(-c2sc3ccccc3c2OC2CCNCC2)o1 [34c, 2-(3-(Piperidin-4-yloxy)benzo[b]thiophen-2-yl)-5-((1,3,5-trimethyl-1H-pyrazol-4-yl)methyl)-1,3,4-oxadiazole]
[3]
  selectivity between PfNMT and HsNMT: 8- to 9 fold
[4]
  Ki: 0.014 µM
[5]
  improvement in enzyme affinity (PfNMT) relative to 1: 100 fold
[6]
  EC50 at 72 h: 12.3 µM
[1]; human, 72 h
  HepG2 LD50: 12 300 nM
  HepG2 LD50 (approximate): ~10 µM
[1]; up to
  selectivity between parasitic and HepG2 cell lines: ~40 fold
[7]
  loss of potency between NF54 and Dd2: less than 4 fold
[8]
  reduction in lipophilicity relative to 1: 100 fold
[9]
  aqueous solubility: > 8 mM
[2]
  LELP: 5.5
[10]
  parasitemia in vivo: reduce parasitemia in vivo

## O=C(NCCOc1ccccc1)c1sc2ccccc2c1OC1CCNCC1 [6c]
[5]
  Ki: > 10 µM

## O=C(OCCOc1ccccc1)c1sc2ccccc2c1OC1CCNCC1 [4e]
[2]
  LELP: 14.1

## OC(c1ccccc1)c1nnc(-c2sc3ccccc3c2OC2CCNCC2)o1 (stereo not drawn) [23g]
[2]
  LELP: 7.9

## COc1cc(Cc2nc(-c3sc4ccccc4c3OC3CCNCC3)no2)cc(OC)c1 [14c]
[2]
  LELP: 11.8

## c1ccc(C2(c3nnc(-c4sc5ccccc5c4OC4CCNCC4)o3)CC2)cc1 [23c]
[2]
  LELP: 12.2

## COc1cccc(CCOC(=O)c2sc3ccccc3c2OC2CCNCC2)c1 [4b, 3-Methoxyphenethyl 3-(Piperidin-4-yloxy)benzo[b]thiophene-2-carboxylate]
[5]
  improvement in enzyme affinity (PfNMT) relative to 1: 6 fold
[2]
  LELP: 13.2

## CC(c1ccccc1)c1nnc(-c2sc3ccccc3c2OC2CCNCC2)o1 (stereo not drawn) [23a, 2-(1-Phenylethyl)-5-(3-(piperidin-4-yloxy)benzo[b]thiophen-2-yl)-1,3,4-oxadiazole]
[2]
  LELP: 12.5

## Cc1noc(C)c1CCc1nnc(-c2sc3ccccc3c2OC2CCNCC2)o1 [35b]
[2]
  LELP: 7.9

## O=C(NCCCc1ccccc1)c1sc2ccccc2c1OC1CCNCC1 [6b]
[5]
  Ki: > 10 µM

## COc1cc(Cc2noc(-c3sc4ccccc4c3OC3CCNCC3)n2)cc(OC)c1 [9e]
[11]
  solubility: very low
[2]
  LELP: 11.8

## Cc1n[nH]c(C)c1Cc1nnc(-c2sc3ccccc3c2OC2CCNCC2)o1 [34a]
[12]
  lower binding affinity to PvNMT than 34c: ~40 fold
[2]
  LELP: 5.6

## COc1cccc(Cc2nc(-c3sc4ccccc4c3OC3CCNCC3)no2)c1 [14b, 5-(3-Methoxybenzyl)-3-(3-(piperidin-4-yloxy)benzo[b]thiophen-2-yl)-1,2,4-oxadiazole]
[2]
  LELP: 12.4

## c1ccc(Cc2nc(-c3sc4ccccc4c3OC3CCNCC3)no2)cc1 [14a]
[2]
  LELP: 12.8

## COc1cccc(Cc2nnc(-c3sc4ccccc4c3OC3CCNCC3)o2)c1 [20b]
[2]
  LELP: 9.2

## O=C(OCCc1ccccc1)c1sc2ccccc2c1OC1CCNCC1 [4a]
[2]
  LELP: 14.3

## O=C(NCCc1ccccc1)c1sc2ccccc2c1OC1CCNCC1 [6a]
[5]
  Ki: > 10 µM

## Cc1nn(C)c(C)c1CCc1nnc(-c2sc3ccccc3c2OC2CCNCC2)o1 [35c]
[2]
  LELP: 8.2

## Cc1n[nH]c(C)c1CCc1nnc(-c2sc3ccccc3c2OC2CCNCC2)o1 [35a]
[2]
  LELP: 7.8

## c1ccc(CCc2noc(-c3sc4ccccc4c3OC3CCNCC3)n2)cc1 [9b, 3-Phenethyl-5-(3-(piperidin-4-yloxy)benzo[b]thiophen-2-yl)-1,2,4-oxadiazole]
[2]
  LELP: 15.2

## c1ccc(C(c2ccccc2)c2nnc(-c3sc4ccccc4c3OC3CCNCC3)o2)cc1 [23e]
[2]
  LELP: 19.4

## COC(c1ccccc1)c1nnc(-c2sc3ccccc3c2OC2CCNCC2)o1 (stereo not drawn) [23f]
[2]
  LELP: 10.5

## COc1cccc(Cc2noc(-c3sc4ccccc4c3OC3CCNCC3)n2)c1 [9c]
[2]
  LELP: 12.5

## COc1cc(CCOC(=O)c2sc3ccccc3c2OC2CCNCC2)cc(OC)c1 [4c]
[2]
  LELP: 12.4

## c1ccc(Cc2n[nH]c(-c3sc4ccccc4c3OC3CCNCC3)n2)cc1 [compound 18]
[2]
  LELP: 9.5

## c1ccc(Cc2nnc(-c3sc4ccccc4c3OC3CCNCC3)o2)cc1 [20a]
[2]
  LELP: 9.5
